Tests used:
[1] = Metabolic stability in swine liver tissue homogenate; format: in vitro ADME; settings: prodrug 20 μM, 37° C.
Experimental: (§1) The representative Compounds of the Disclosure were screened for metabolic stability in swine jejunum/liver tissue homogenates, following our previously reported methods (Zimmermann et al., J. Med. Chem., 61(9):3918-29 (2018); Tenora et al., J. Med. Chem., 62(7):3524-38 (2019)). In brief, freshly collected tissues were homogenized by probe sonication in 9× volume of 0.1 M potassium phosphate buffer over ice. Post homogenization, prodrugs were spiked at a concentration of 20 μM (in triplicate) and incubated in an orbital shaker at 37° C. for 60 min. Final concentration of DMSO in the incubations was 0.2% v/v. At each time point (0, 30, 60 min), 100 μL of sample was precipitated with 300 μL of methanol containing internal standard (IS; losartan: 0.5 μM). […] After centrifugation, 50 μL of supernatant was diluted with 50 μL of water, vortexed and submitted for analysis. Prodrug disappearance over time was measured using liquid chromatography tandem mass spectrometry (LC-MS/MS).
(§2) The processed supernatants were analyzed on a Thermo Scientific Vanquish UPLC system (equipped with Vanquish autosampler, pumps, and column compartment) hyphenated to TSQ Altis mass spectrometer (Thermo Fisher Scientific Inc., Waltham MA). […] The autosampler was operated at 4° C. […] Peak area ratios obtained from peak area counts of analyte and internal standard were used to measure the disappearance of prodrugs.

[2] = Metabolic stability in swine jejunum (gut) tissue homogenate; format: in vitro ADME; settings: prodrug 20 μM, 37° C.
Experimental: as §1, §2

Compound: CC(C)OC(=O)[C@H](CCC(=O)C=[N+]=[N-])NC(=O)C(Cl)Cl [Compound 5e, Isopropyl (S)-6-diazo-2-(2,2-dichloroacetamido)-5-oxohexanoate]
- Liver stability (% remaining at 60 min) [1]: 0 ± 0%

Compound: C=CCOC(=O)[C@H](CCC(=O)C=[N+]=[N-])NC(C)=O [Compound 5l, Allyl (S)-2-acetamido-6-diazo-5-oxohexanoate]
- Liver stability (% remaining at 60 min) [1]: 12 ± 0%

Compound: CCCC(=O)N[C@@H](Cc1c[nH]c2ccccc12)C(=O)N[C@@H](CCC(=O)C=[N+]=[N-])C(=O)OC(C)C [Compound 8a, Isopropyl (S)-2-((S)-2-butyramido-3-(1H-indol-3-yl)propanamido)-6-diazo-5-oxohexanoate]
- Liver stability (% remaining at 60 min) [1]: 5 ± 1%
- Gut Stability (% remaining at 60 min) [2]: 12 ± 1%

Compound: CC(C)CC(=O)N[C@@H](Cc1c[nH]c2ccccc12)C(=O)N[C@@H](CCC(=O)C=[N+]=[N-])C(=O)OC(C)C [Compound 8b, Isopropyl (S)-2-((S)-3-(1H-indol-3-yl)-2-(3-methylbutanamido)propanamido)-6-diazo-5-oxohexanoate]
- Liver stability (% remaining at 60 min) [1]: 1 ± 0%
- Gut Stability (% remaining at 60 min) [2]: 6 ± 1%

Compound: CC(C)OC(=O)[C@H](CCC(=O)C=[N+]=[N-])NC(=O)[C@H](Cc1c[nH]c2ccccc12)NC(=O)C(C)C [Compound 8c, Isopropyl (S)-2-((S)-3-(1H-indol-3-yl)-2-isobutyramidopropanamido)-6-diazo-5-oxohexanoate]
- Liver stability (% remaining at 60 min) [1]: 13 ± 0%
- Gut Stability (% remaining at 60 min) [2]: 13 ± 7%

Compound: CC(C)OC(=O)[C@H](CCC(=O)C=[N+]=[N-])NC(=O)[C@H](Cc1c[nH]c2ccccc12)NC(=O)CN1CCN(C)CC1 [Compound 8j, Isopropyl (S)-2-((S)-3-(1H-indol-3-yl)-2-(2-(4-methylpiperazin-1-yl)acetamido)propanamido)-6-diazo-5-oxohexanoate]
- Liver stability (% remaining at 60 min) [1]: 2 ± 0%

Compound: CC(C)OC(=O)[C@H](CCC(=O)C=[N+]=[N-])NC(=O)[C@H](Cc1c[nH]c2ccccc12)NC(=O)c1ccncc1 [Compound 8m, Isopropyl (S)-2-((S)-3-(1H-indol-3-yl)-2-(isonicotinamido)propanamido)-6-diazo-5-oxohexanoate]
- Liver stability (% remaining at 60 min) [1]: 0 ± 0%

Compound: Cn1cc(C[C@H](NC(=O)C(Cl)Cl)C(=O)N[C@@H](CCC(=O)C=[N+]=[N-])C(=O)OC(C)(C)C)c2ccccc21 [Compound 12h, tert-Butyl (S)-6-diazo-2-((S)-2-(2,2-dichloroacetamido)-3-(1-methyl-1H-indol-3-yl)propanamido)-5-oxohexanoate]
- Liver stability (% remaining at 60 min) [1]: 50 ± 3%

Compound: CN(C)CC(=O)N[C@@H](CC(C)(C)C)C(=O)N[C@@H](CCC(=O)C=[N+]=[N-])C(=O)OC(C)(C)C [Compound 24a, tert-Butyl (S)-6-diazo-2-((S)-2-(2-(dimethylamino)acetamido)-4,4-dimethylpentanamido)-5-oxohexanoate]
- Liver stability (% remaining at 60 min) [1]: 78 ± 1%

Compound: CN(C)[C@@H](Cc1ccccc1)C(=O)N[C@@H](CCC(=O)C=[N+]=[N-])C(=O)OC(C)(C)C [Compound 26a, tert-Butyl (S)-6-diazo-2-((S)-2-(dimethylamino)-3-phenylpropanamido)-5-oxohexanoate]
- Liver stability (% remaining at 60 min) [1]: 71 ± 0%

Compound: CN(C)CC(=O)NCC(=O)N[C@@H](CCC(=O)C=[N+]=[N-])C(N)=O [Compound 31c, (S)-6-Diazo-2-(2-(2-(dimethylamino)acetamido)acetamido)-5-oxohexanamide]
- Liver stability (% remaining at 60 min) [1]: 89 ± 4%

Compound: CC(C)C[C@H](NC(=O)CN(C)C)C(=O)N[C@@H](CCC(=O)C=[N+]=[N-])C(N)=O [Compound 31d, (S)-6-Diazo-2-((S)-2-(2-(dimethylamino)acetamido)-4-methylpentanamido)-5-oxohexanamide]
- Liver stability (% remaining at 60 min) [1]: 90 ± 1%

Compound: CN(C)CC(=O)N[C@@H](Cc1ccccc1)C(=O)N[C@@H](CCC(=O)C=[N+]=[N-])C(N)=O [Compound 31e, (S)-6-Diazo-2-((S)-2-(2-(dimethylamino)acetamido)-3-phenylpropanamido)-5-oxohexanamide]
- Liver stability (% remaining at 60 min) [1]: 39 ± 0%

— patent US20240246902A1, “PRODRUGS OF 6-DIAZO-5-OXO-L-NORLEUCINE” (THE JOHNS HOPKINS UNIVERSITY, priority 2021, published 2024)
